Changes are numbered by the printed parent chain. Like-named read-outs stand apart in the source and are kept apart here.

For experiment [1], the system named is BK. Also on record: method as in PMID 38708937. As to conditions: inhibition; cited from earlier work.
Experiment [2] deals with T1, TRAAKP259L (Homo sapiens, UniProt Q9NYG8, P233L).
T1 construct: The transcribed messages encode H. sapiens TRAAK amino acids 1–393; expressed in transfected cells; host or cells: Xenopus laevis oocytes, cRNA injection
T1 sequence (Q9NYG8 1-393 P233L): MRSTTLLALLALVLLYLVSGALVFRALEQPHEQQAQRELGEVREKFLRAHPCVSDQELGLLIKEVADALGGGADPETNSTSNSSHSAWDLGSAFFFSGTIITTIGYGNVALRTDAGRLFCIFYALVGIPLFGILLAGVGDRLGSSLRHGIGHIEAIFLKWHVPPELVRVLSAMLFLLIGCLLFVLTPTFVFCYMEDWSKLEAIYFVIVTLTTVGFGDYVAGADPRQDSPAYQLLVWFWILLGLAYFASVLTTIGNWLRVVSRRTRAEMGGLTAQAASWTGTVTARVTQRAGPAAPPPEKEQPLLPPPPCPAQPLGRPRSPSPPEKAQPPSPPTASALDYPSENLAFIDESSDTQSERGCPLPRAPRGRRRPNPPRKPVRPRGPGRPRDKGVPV
Briefly: Excised patch recording of TRAAK mutant P259L. Type of experiment: biochemical. From the text: For patch clamp recording from Xenopus oocytes, genes encoding full-length Homo sapiens TRAAK (UniProt Q9NYG8–2), TREK-1 (UniProt O95069), and TREK-2 (UniProt P57789) were codon optimized for eukaryotic expression, synthesized (Genewiz), and cloned into a modified pGEMHE vector using Xho1 and EcoR1 restriction sites. The transcribed messages encode H. sapiens TRAAK amino acids 1–393, TREK-1 amino acids 1–426, or TREK-2 amino acids 1–538 with an additional three amino acids (SNS) at the C terminus. TRAAK mutants were introduced by polymerase chain reaction (PCR). Linearized DNA was transcribed in vitro using T7 polymerase. […] Currents were recorded at 25 °C from inside-out patches excised from oocytes 1 to 5 d after RNA injection. […]
Patches were evaluated with voltage-step protocols to confirm TRAAK expression and minimal non-specific leak based on reversal potential. Currents were recorded using an Axopatch 200B amplifier (Molecular Devices) at a bandwidth of 1 kHz and digitized with an Digidata 1550B (Molecular Devices) at 100–500 kHz using pClamp10.7 software. […] In an effort to minimize variability associated with differences in resting membrane tension, we targeted patches with low basal curvature and low resting channel activity and ensured measured pressure difference across the patch was as close to zero as possible at rest to prevent mechanical activation of channels. […]

Experiment [3] concerns the target T2, Homo sapiens TRAAK (Homo sapiens, UniProt Q9NYG8).
T2 construct: The transcribed messages encode H. sapiens TRAAK amino acids 1–393; expressed in transfected cells; host or cells: Xenopus laevis oocytes, cRNA injection
T2 sequence (Q9NYG8 1-393): T1 sequence (Q9NYG8 1-393 P233L) with L233P
Briefly: Excised inside-out patch recording of TRAAK from Xenopus oocytes. Format: biochemical. The settings on record: for inhibition at 1 µM: 1 μM CBD, read-out: percent inhibition. From the text: For patch clamp recording from Xenopus oocytes, genes encoding full-length Homo sapiens TRAAK (UniProt Q9NYG8–2), TREK-1 (UniProt O95069), and TREK-2 (UniProt P57789) were codon optimized for eukaryotic expression, synthesized (Genewiz), and cloned into a modified pGEMHE vector using Xho1 and EcoR1 restriction sites. The transcribed messages encode H. sapiens TRAAK amino acids 1–393, TREK-1 amino acids 1–426, or TREK-2 amino acids 1–538 with an additional three amino acids (SNS) at the C terminus. TRAAK mutants were introduced by polymerase chain reaction (PCR). Linearized DNA was transcribed in vitro using T7 polymerase. Complementary RNA (0.1 to 10 ng for TRAAK, TREK-1, TREK-2, and mutants) in 50 nL H2O was injected into Xenopus laevis oocytes extracted from anesthetized frogs. Currents were recorded at 25 °C from inside-out patches excised from oocytes 1 to 5 d after RNA injection. The pipette solution contained 15 mM KCl, 135 mM NaCl, 2 mM MgCl2, and 10 mM HEPES (pH = 7.4 with KOH) and the bath solution contained 150 mM KCl and 10 mM HEPES (pH = 7.1 with KOH). Borosilicate glass pipettes were pulled to 2–5 MΩ resistance.
Patches were evaluated with voltage-step protocols to confirm TRAAK expression and minimal non-specific leak based on reversal potential. Currents were recorded using an Axopatch 200B amplifier (Molecular Devices) at a bandwidth of 1 kHz and digitized with an Digidata 1550B (Molecular Devices) at 100–500 kHz using pClamp10.7 software. Pressure was applied with a second-generation high-speed pressure clamp device (HSPC-2-SB, ALA Scientific Instruments). Aggregated data were from patches from n ≥ 2 different cells on different days. No relevant differences were observed between patches from different cells. In an effort to minimize variability associated with differences in resting membrane tension, we targeted patches with low basal curvature and low resting channel activity and ensured measured pressure difference across the patch was as close to zero as possible at rest to prevent mechanical activation of channels. Data were analyzed using Clampfit 10.7, Excel, and Graphpad Prism software. For voltage families, the data were decimated 100x and plotted in Prism. Statistical analysis was conducted with Dunnett’s multiple comparisons test after an ordinary one-way ANOVA using Prism software.
To avoid cannabinoid absorption to plastic, cannabinoid solutions were made in glass vials and diluted by weight, perfusion was performed using glass tubing pulled from borosilicate glass Pasteur pipettes (Fisherbrand, Cat# 13–678-20C), and recordings were performed in glass chambers. Channel activity was continuously recorded during perfusion steps. Patches were exposed to each cannabinoid concentration until a stable current level was reached (0.5–2 minutes). CBD (Cayman Chemical cat#90080) was prepared as a 10mM stock solution in DMSO, CBN (Cayman Chemical cat#25495) was prepared as a 80mM stock solution in DMSO, CBDV (Phytolab Cat#85955) was prepared as a 10mM stock solution in DMSO, and CBDP (Cayman Chemical cat#33611) was purchased as a 2.9 mM stock solution in methanol. Cannabinoids were serially diluted in bath solution to achieve working concentrations of 50 μM to 10 nM. Bath volume in the recording chamber was minimized by suction and drug-containing solutions were delivered three times to ensure establishment of desired concentration in the recording chamber. Cannabinoids were applied from low to high concentration. The recording chamber and perfusion system were washed extensively with methanol after every trial.
The effects of cannabinoids on channel activity were quantified by the reduction in channel current evoked at 0 mV during a gap-free recording or during 200 ms long voltage families with steps ranging from −100 to +100 mV. Currents were normalized to those prior to cannabinoid application to facilitate comparisons across different patches and cells. […]

The IC50 is the concentration that gives 50% inhibition. By inhibition is commonly meant the share of the control response that was lost under treatment. Consider `C=C(C)[C@@H]1CCC(C)=C[C@H]1c1c(O)cc(CCCCC)cc1O` [CBD, Cannabidiol], for which the IC50 was 280 nM in experiment [1], 156 ± 8 nM in experiment [2] and around 145 nM in experiment [3]. Also, the inhibition at 1 µM was determined as 43 ± 13% in experiment [3] (after mβCD treatment (high membrane tension)) and 91 ± 3% in experiment [3] (prior to mβCD treatment). The “effect on mechanical activation of TRAAK by negative pressure steps” value in experiment [3] (0.5, 1 and 10 μM CBD) is listed as “more negative pressure was required to activate TRAAK to the same degree”. This compound returned a Hill-coefficient in experiment [3] (TRAAK dose-response) of 1.3. The “fold higher affinity than RU-TRAAK-1 and −2” value in experiment [3] (TRAAK inhibitors) is 3–5 fold. In addition, in experiment [3] (TRAAK, excised patches), the “concentration at which effects are evident” value lay within 1 to 10 nM. In experiment [3] (TRAAK, excised patches), the “concentration of full inhibition” value is ~ 1 μM. Besides, the “fold higher concentration required for similar inhibition after mβCD treatment” value in experiment [3] (after vs prior to mβCD treatment) is on record as “Approximately 10 fold”. Besides, in experiment [3] (nonspecific TRAAK inhibitors), the “fold higher affinity than ruthenium red and TKDC” value was “greater than 10 fold”.

The values above are taken from doi:10.1101/2024.12.09.627564, “Cannabinoid inhibition of mechanosensitive K^+ channels” (bioRxiv, 2024).
